Experiment [1] deals with rat TAAR1 (Rattus norvegicus (Rat), UniProt Q923Y9). The experiment is described as follows: Radioligand binding assay on rat TAAR1. The conditions noted are these: rat TAAR1 (second value of the cell), HEK-293 membranes; read-out: Ki (μM) mouse/rat. An outline of the steps: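 Membranes from HEK293 cells stably expressing rat TAAR1 were used, with radioligand Kd determined by saturation for each batch. Compounds (10 pM to 10 μM, in duplicate) were incubated for 1 h at 4 °C. Bound radioactivity was collected by filtration onto PEI-soaked GF/C filters and counted by scintillation.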

The target in experiment [2] is mouse TAAR1 (Mus musculus (Mouse), UniProt Q923Y8). Put plainly: Radioligand binding assay on mouse TAAR1. The conditions noted are these: mouse TAAR1 (first value of the cell), HEK-293 membranes; read-out: Ki (μM) mouse/rat. An outline of the steps:
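Membranes from HEK293 cells stably expressing mouse TAAR1, Kd of radioligand determined per batch by saturation. Compounds tested 10 pM to 10 μM in duplicate, incubated 1 h at 4 °C, then filtration over PEI-soaked GF/C filters and scintillation counting.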

Sequence of rat TAAR1 (Q923Y9 whole entry): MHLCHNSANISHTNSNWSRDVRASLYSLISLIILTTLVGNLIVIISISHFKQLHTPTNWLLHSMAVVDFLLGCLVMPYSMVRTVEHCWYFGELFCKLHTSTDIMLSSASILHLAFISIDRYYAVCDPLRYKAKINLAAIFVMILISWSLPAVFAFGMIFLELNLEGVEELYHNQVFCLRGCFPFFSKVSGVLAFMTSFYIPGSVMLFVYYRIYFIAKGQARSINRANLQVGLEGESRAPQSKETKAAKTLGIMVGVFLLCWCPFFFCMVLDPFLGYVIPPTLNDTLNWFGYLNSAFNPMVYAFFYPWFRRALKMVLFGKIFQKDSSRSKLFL
Sequence of mouse TAAR1 (Q923Y8 whole entry): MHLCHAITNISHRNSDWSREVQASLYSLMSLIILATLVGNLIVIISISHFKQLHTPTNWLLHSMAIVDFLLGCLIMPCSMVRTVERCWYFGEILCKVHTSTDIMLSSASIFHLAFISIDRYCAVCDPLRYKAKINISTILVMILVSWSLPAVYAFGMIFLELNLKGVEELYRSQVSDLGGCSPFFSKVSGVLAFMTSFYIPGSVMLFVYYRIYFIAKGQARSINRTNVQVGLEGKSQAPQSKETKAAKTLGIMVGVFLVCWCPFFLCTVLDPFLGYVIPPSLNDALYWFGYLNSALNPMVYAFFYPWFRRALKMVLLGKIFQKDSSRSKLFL

Turning to `Fc1cc(Nc2ncc(F)c(OCC(F)(F)F)n2)ccc1[C@@H]1CNCCO1` [Example 209, (R)-5-Fluoro-N-(3-fluoro-4-(morpholin-2-yl)phenyl)-4-(2,2,2-trifluoroethoxy)pyrimidin-2-amine], the Ki in experiment [1] amounted to 0.0025 µM; in experiment [2] it was 0.0032 µM.
For `c1coc(-c2cnc(Nc3ccc([C@@H]4CNCCO4)cc3)nc2)c1` [Example 148, (5-Furan-2-yl-pyrimidin-2-yl)-((R)-4-morpholin-2-yl-phenyl)-amine] the same measures were 0.0083 µM and 0.0017 µM.
For `c1cc([C@H]2CNCCO2)ccc1Nc1ncc(OCC2CC2)cn1` [Example 124, (S)-5-(Cyclopropylmethoxy)-N-(4-(morpholin-2-yl)phenyl)pyrimidin-2-amine] the same measures were 0.0348 µM and 0.0036 µM.
The corresponding values for `FC(F)(F)c1cc(Nc2ccc([C@H]3CNCCO3)cc2)ncc1Cl` [Example 82, (S)-5-Chloro-N-(4-(morpholin-2-yl)phenyl)-4-(trifluoromethyl)pyridin-2-amine] are 0.0101 µM and 0.0008 µM.
In the case of `Cc1cc(C2CNCCO2)cnc1Nc1ccc(Br)cn1` (racemic) [Example 120, (RS)—N-(5-Bromopyridin-2-yl)-3-methyl-5-(morpholin-2-yl)pyridin-2-amine], the Ki in experiment [1] amounted to 0.0364 µM; in experiment [2], 0.0058 µM.
The corresponding values for `FC(F)(F)c1cc(Nc2ccc([C@H]3CNCCO3)cc2)c2cccc(C(F)(F)F)c2n1` [Example 49, (S)—N-(4-(Morpholin-2-yl)phenyl)-2,8-bis(trifluoromethyl)quinolin-4-amine] are 0.104 µM and 0.0266 µM.
The corresponding values for `CCc1cnc(Nc2ccc(C3CNCCO3)cc2C)nc1` (racemic) [Example 88, (RS)-5-Ethyl-N-(2-methyl-4-(morpholin-2-yl)phenyl)pyrimidin-2-amine] are 0.0874 µM and 0.008 µM.
The corresponding values for `Cc1cc(Nc2ccc(C3CNCCO3)cc2C)ncc1Br` (racemic) [Example 85, (RS)-5-Bromo-4-methyl-N-(2-methyl-4-(morpholin-2-yl)phenyl)pyridin-2-amine] are 0.0194 µM and 0.0014 µM.
As for `c1ccc(-n2ccc(Nc3ccc([C@@H]4CNCCO4)cc3)n2)cc1` [Example 164, ((R)-4-Morpholin-2-yl-phenyl)-(1-phenyl-1H-pyrazol-3-yl)-amine], the values for the Ki in experiment [1] and in experiment [2] were 0.025 µM and 0.0006 µM, respectively.
For `COCCOc1cnc(Nc2ccc([C@H]3CNCCO3)cc2F)nc1` [Example 152, ((S)-2-Fluoro-4-morpholin-2-yl-phenyl)-[5-(2-methoxy-ethoxy)-pyrimidin-2-yl]-amine] the same measures were 0.268 µM and 0.0196 µM.
For `Cc1cnc(Nc2ccc([C@H]3CNCCO3)cc2)cc1Br` [Example 64, (S)-4-Bromo-5-methyl-N-(4-(morpholin-2-yl)phenyl)pyridin-2-amine] the same measures were 0.101 µM and 0.0027 µM.
For `Fc1cc(Nc2ncc(C(F)(F)F)cn2)ccc1[C@H]1CNCCO1` [Example 197, (S)—N-(3-Fluoro-4-(morpholin-2-yl)phenyl)-5-(trifluoromethyl)pyrimidin-2-amine] the same measures were 0.0315 µM and 0.0031 µM.
Take `COc1cccc(CNc2ccc([C@H]3CNCCO3)cc2)n1` [Example 28, (6-Methoxy-pyridin-2-ylmethyl)-((S)-4-morpholin-2-yl-phenyl)-amine]: the Ki in experiment [1] worked out at 0.561 µM; in experiment [2], 0.276 µM.
On to `COCCOc1cnc(Nc2ccc([C@@H]3CNCCO3)cc2)nc1` [Example 139], for which the Ki in experiment [1] was found to be 1.06 µM; in experiment [2], 0.0667 µM.
In the case of `FC(F)Oc1cnc(Oc2cnc(Nc3ccc([C@@H]4CNCCO4)cc3)nc2)nc1` [Example 174, (R)-5-(5-(Difluoromethoxy)pyrimidin-2-yloxy)-N-(4-(morpholin-2-yl)phenyl)pyrimidin-2-amine], the Ki in experiment [1] came out at 0.0628 µM; in experiment [2], 0.0088 µM.
The corresponding values for `Fc1cc([C@@H]2CNCCO2)ccc1Nc1ncc(C(F)(F)F)cn1` [Example 134, ((R)-2-Fluoro-4-morpholin-2-yl-phenyl)-(5-trifluoromethyl-pyrimidin-2-yl)-amine] are 0.0079 µM and 0.0069 µM.
The corresponding values for `CCc1cnc(Nc2ccc([C@@H]3CNCCO3)cc2C)nc1` [Example 106, (5-Ethyl-pyrimidin-2-yl)-((R)-2-methyl-4-morpholin-2-yl-phenyl)-amine] are 0.0814 µM and 0.0086 µM.
For `Cc1cc(Nc2ccc([C@H]3CNCCO3)cc2)ncc1Br` [Example 62, (S)-5-Bromo-4-methyl-N-(4-(morpholin-2-yl)phenyl)pyridin-2-amine] the same measures were 0.0094 µM and 0.0005 µM.
For the compound `CNC(=O)c1cnc(Nc2ccc([C@H]3CNCCO3)cc2)nc1` [Example 158, 2-((S)-4-Morpholin-2-yl-phenylamino)-pyrimidine-5-carboxylic acid methylamide], the values for the Ki in experiment [1] and in experiment [2] were 1.85 µM and 1.02 µM, respectively.
The corresponding values for `c1ccc(CCNc2ccc([C@H]3CNCCO3)cc2)cc1` [Example 13, ((S)-4-Morpholin-2-yl-phenyl)-phenethyl-amine] are 0.108 µM and 0.0266 µM.
For `Cn1ccc(Nc2ccc(C3CNCCO3)cc2)n1` (racemic) [Example 140, (RS)-(1-Methyl-1H-pyrazol-3-yl)-(4-morpholin-2-yl-phenyl)-amine] the same measures were 5.25 µM and 0.0386 µM.
Turning to `Clc1cncc(Nc2ccc([C@@H]3CNCCO3)cc2)n1` [Example 206, (R)-6-Chloro-N-(4-(morpholin-2-yl)phenyl)pyrazin-2-amine], the Ki came to 0.0963 µM in experiment [1] and 0.005 µM in experiment [2].
For `Fc1cc(Cl)ccc1Nc1ccc([C@H]2CNCCO2)cc1` [Example 59, (S)-4-Chloro-2-fluoro-N-(4-(morpholin-2-yl)phenyl)aniline] the same measures were 0.207 µM and 0.0049 µM.
In the case of `Fc1cc(Nc2ncc(Cl)cn2)ccc1[C@@H]1CNCCO1` [Example 210, (R)-5-Chloro-N-(3-fluoro-4-(morpholin-2-yl)phenyl)pyrimidin-2-amine], the values for the Ki in experiment [1] and in experiment [2] were 0.0266 µM and 0.0047 µM, respectively.
For `Clc1cnc(Nc2ccc([C@@H]3CNCCO3)cc2)cn1` [Example 205, (R)-5-Chloro-N-(4-(morpholin-2-yl)phenyl)pyrazin-2-amine] the same measures were 0.162 µM and 0.0026 µM.
The corresponding values for `FC(F)(F)c1ncc(Nc2ccc([C@@H]3CNCCO3)cc2)cn1` [Example 154, ((R)-4-Morpholin-2-yl-phenyl)-(2-trifluoromethyl-pyrimidin-5-yl)-amine] are 0.863 µM and 0.0096 µM.
Take `COc1cnc(Nc2ccc([C@H]3CNCCO3)cc2)nc1` [Example 12, (5-Methoxy-pyrimidin-2-yl)-((S)-4-morpholin-2-yl-phenyl)-amine]: the Ki in experiment [1] was found to be 0.259 µM; in experiment [2] it was 0.0055 µM.
For `c1coc(-c2cnc(Nc3ccc([C@H]4CNCCO4)cc3)nc2)c1` [Example 147, (5-Furan-2-yl-pyrimidin-2-yl)-((S)-4-morpholin-2-yl-phenyl)-amine] the same measures were 0.0197 µM and 0.0009 µM.
For `FC(F)(F)C(Nc1ccc(CCC2CCCNC2)cc1)c1ccc(Cl)cc1` (racemic) [Example 4, (RS)-[1-(4-Chloro-phenyl)-2,2,2-trifluoro-ethyl]-[(RS)-4-(2-piperidin-3-yl-ethyl)-phenyl]-amine] the same measures were 0.0785 µM and 0.122 µM.
The corresponding values for `Fc1cc(Cl)ccc1CNc1ccc([C@H]2CNCCO2)cc1` [Example 35, (4-Chloro-2-fluoro-benzyl)-((S)-4-morpholin-2-yl-phenyl)-amine] are 0.188 µM and 0.0096 µM.
For `FC(F)(F)c1cnc(Nc2ccc([C@H]3CNCCO3)cc2Cl)nc1` [Example 169, ((S)-2-Chloro-4-morpholin-2-yl-phenyl)-(5-trifluoromethyl-pyrimidin-2-yl)-amine], the Ki in experiment [1] was determined as 0.0397 µM; in experiment [2] it was 0.0243 µM.
For `Fc1cncc(Nc2ccc([C@H]3CNCCO3)cc2)c1` [Example 43, (S)-5-Fluoro-N-(4-(morpholin-2-yl)phenyl)pyridin-3-amine] the same measures were 0.648 µM and 0.0269 µM.
For `FC(F)(F)c1cnc(Nc2ccc([C@@H]3CNCCO3)cc2)nc1` [Example 95, ((R)-4-Morpholin-2-yl-phenyl)-(5-trifluoromethyl-pyrimidin-2-yl)-amine] the same measures were 0.0223 µM and 0.0057 µM.
The corresponding values for `Fc1cc(Nc2ncc(OCC(F)(F)F)cn2)ccc1[C@@H]1CNCCO1` [Example 207, (R)—N-(3-Fluoro-4-(morpholin-2-yl)phenyl)-5-(2,2,2-trifluoroethoxy)pyrimidin-2-amine] are 0.0102 µM and 0.0043 µM.
In the case of `CCOc1cnc(Nc2ccc(C3CNCCO3)cc2F)nc1` (racemic) [Example 100, (RS)-(5-Ethoxy-pyrimidin-2-yl)-(2-fluoro-4-morpholin-2-yl-phenyl)-amine], the Ki in experiment [1] was determined as 0.0164 µM; in experiment [2] it was 0.0053 µM.
For `Clc1cccc2ccc(Nc3ccc([C@H]4CNCCO4)cc3)nc12` [Example 52, (S)-8-Chloro-N-(4-(morpholin-2-yl)phenyl)quinolin-2-amine] the same measures were 0.0084 µM and 0.0005 µM.
The corresponding values for `FC(F)(F)Oc1ccc(CNc2ccc([C@H]3CNCCO3)cc2)cc1` [Example 25, ((S)-4-Morpholin-2-yl-phenyl)-(4-trifluoromethoxy-benzyl)-amine] are 0.0705 µM and 0.0124 µM.
